Test results reported in patent US11759455B2, “Substituted 1H-imidazo[4,5-b]pyridin-2(3H)-ones and their use as GLUN2B receptor modulators” (JANSSEN PHARMACEUTICA NV, priority 2016, dated 2023).

Molecular target: T1, human GluN1/GluN2B NMDA receptors (Homo sapiens, UniProt Q13224)
T1 construct: expressed in transfected cells
Assay: Cell-based calcium flux (FLIPR) assay on cloned human NR1/NR2B ion channels expressed in mammalian cells (standard and HTS buffer variants);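 also: stable Tet-On inducible cell line, Ca2+ influx triggered by glutamate at about EC40 plus 10 µM glycine, fluorescent dye read-out over 5 min, normalized to control wells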
Settings: standard assay buffer (0.5 mM MgCl2 dye loading; 137 mM NaCl, 4 mM KCl assay buffer), human GluN1/GluN2B cells, read-out: NR2B IC50 (μM) standard assay

T1 sequence (Q13224 27-1484, other chains not shown): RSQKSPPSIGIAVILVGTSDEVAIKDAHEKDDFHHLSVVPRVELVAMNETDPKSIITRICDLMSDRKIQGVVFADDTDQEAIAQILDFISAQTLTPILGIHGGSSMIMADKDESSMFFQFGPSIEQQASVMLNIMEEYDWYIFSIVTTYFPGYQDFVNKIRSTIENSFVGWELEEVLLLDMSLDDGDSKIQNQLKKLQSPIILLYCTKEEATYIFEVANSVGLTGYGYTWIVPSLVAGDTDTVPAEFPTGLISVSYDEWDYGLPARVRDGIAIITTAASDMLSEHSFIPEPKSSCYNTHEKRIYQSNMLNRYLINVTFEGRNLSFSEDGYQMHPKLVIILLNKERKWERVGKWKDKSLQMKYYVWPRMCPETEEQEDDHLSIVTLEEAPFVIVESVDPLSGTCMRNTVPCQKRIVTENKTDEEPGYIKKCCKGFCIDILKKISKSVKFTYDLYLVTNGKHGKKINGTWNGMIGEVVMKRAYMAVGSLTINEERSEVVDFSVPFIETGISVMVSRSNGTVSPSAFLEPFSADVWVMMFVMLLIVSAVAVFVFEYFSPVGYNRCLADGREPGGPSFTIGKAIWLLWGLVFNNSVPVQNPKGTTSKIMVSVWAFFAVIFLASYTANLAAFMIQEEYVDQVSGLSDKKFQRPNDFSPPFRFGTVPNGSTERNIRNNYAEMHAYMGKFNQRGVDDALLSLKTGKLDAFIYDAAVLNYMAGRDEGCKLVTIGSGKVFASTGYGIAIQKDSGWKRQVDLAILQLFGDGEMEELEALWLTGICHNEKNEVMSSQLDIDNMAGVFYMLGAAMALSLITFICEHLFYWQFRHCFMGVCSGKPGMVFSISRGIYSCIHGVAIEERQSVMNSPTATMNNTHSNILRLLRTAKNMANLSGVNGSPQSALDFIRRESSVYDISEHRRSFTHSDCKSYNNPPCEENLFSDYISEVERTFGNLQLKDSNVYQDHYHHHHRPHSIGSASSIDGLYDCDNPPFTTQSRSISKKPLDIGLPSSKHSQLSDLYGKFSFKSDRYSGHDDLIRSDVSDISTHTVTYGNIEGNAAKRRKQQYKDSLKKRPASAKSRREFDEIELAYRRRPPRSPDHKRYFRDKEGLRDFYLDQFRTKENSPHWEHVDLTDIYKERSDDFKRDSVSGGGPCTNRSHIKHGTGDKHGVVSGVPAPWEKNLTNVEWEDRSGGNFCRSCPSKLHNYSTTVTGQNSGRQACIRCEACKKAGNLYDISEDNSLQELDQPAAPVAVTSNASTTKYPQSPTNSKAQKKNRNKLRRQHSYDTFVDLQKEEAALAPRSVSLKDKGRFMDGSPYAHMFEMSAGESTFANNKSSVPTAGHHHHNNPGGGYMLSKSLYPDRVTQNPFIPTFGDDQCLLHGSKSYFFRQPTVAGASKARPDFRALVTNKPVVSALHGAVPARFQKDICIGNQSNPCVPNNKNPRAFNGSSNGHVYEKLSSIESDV

| IC50 [µM] | SMILES |
| --- | --- |
| 0.095 | Cc1csc(-c2cnc3[nH]c(=O)n(Cc4nc(C)no4)c3c2)c1 [Example 127, 1-[(3-Methyl-1,2,4-oxadiazol-5-yl)methyl]-6-(4-methyl-2-thienyl)-3H-imidazo[4,5-b]pyridin-2-one] |
| 0.394 | Cc1cc(-c2cnc3[nH]c(=O)n(Cc4ccn(C)n4)c3c2)ccc1F [Example 129, 6-(4-Fluoro-3-methyl-phenyl)-1-[(1-methylpyrazol-3-yl)methyl]-3H-imidazo[4,5-b]pyridin-2-one] |
| > 10 | Cn1c(=O)n(CC(=O)O)c2cc(-c3cccc(C(F)(F)F)c3)cnc21 [Example 137, 2-[3-Methyl-2-oxo-6-[3-(trifluoromethyl)phenyl]imidazo[4,5-b]pyridin-1-yl]Acetic Acid] |
| 0.208 | Cn1cc(Cn2c(=O)[nH]c3ncc(-c4ccc(F)cc4)cc32)nn1 [Example 142, 6-(4-Fluorophenyl)-1-[(1-methyltriazol-4-yl)methyl]-3H-imidazo[4,5-b]pyridin-2-one] |
| 0.075 | Cc1noc(Cn2c(=O)[nH]c3ncc(-c4ccc(F)c(F)c4)cc32)n1 [Example 143, 6-(3,4-Difluorophenyl)-1-[(3-methyl-1,2,4-oxadiazol-5-yl)methyl]-3H-imidazo[4,5-b]pyridin-2-one] |
| 0.107 | Cc1nc(Cn2c(=O)[nH]c3ncc(-c4ccc(F)c(F)c4)cc32)no1 [Example 144, 6-(3,4-Difluorophenyl)-1-[(5-methyl-1,2,4-oxadiazol-3-yl)methyl]-3H-imidazo[4,5-b]pyridin-2-one] |
| 0.365 | O=c1[nH]c2ncc(-c3cccc(C(F)(F)F)c3)cc2n1CCN1CC(O)C1 [Example 147, 1-[2-(3-Hydroxyazetidin-1-yl)ethyl]-6-[3-(trifluoromethyl)phenyl]-3H-imidazo[4,5-b]pyridin-2-one] |
| 0.277 | O=c1[nH]c2ncc(-c3cccc(C(F)(F)F)c3)cc2n1CCNC1CCC1 [Example 150, 1-[2-(Cyclobutylamino)ethyl]-6-[3-(trifluoromethyl)phenyl]-3H-imidazo[4,5-b]pyridin-2-one] |
| 0.283 | O=c1[nH]c2ncc(-c3ccccc3)cc2n1CCN1CCC1 [Example 153, 1-[2-(Azetidin-1-yl)ethyl]-6-phenyl-3H-imidazo[4,5-b]pyridin-2-one] |
| 0.077 | Cc1cccc(-c2cnc3[nH]c(=O)n(CCN4CCC4)c3c2)c1 [Example 154, 1-[2-(Azetidin-1-yl)ethyl]-6-(m-tolyl)-3H-imidazo[4,5-b]pyridin-2-one] |
| 1.97 | Cc1cccc(C)c1-c1cnc2[nH]c(=O)n(CCN3CCC3)c2c1 [Example 157, 1-[2-(Azetidin-1-yl)ethyl]-6-(2,6-dimethylphenyl)-3H-imidazo[4,5-b]pyridin-2-one] |
| 0.201 | O=c1[nH]c2ncc(-c3cccc(Cl)c3)cc2n1CCN1CCC1 [Example 158, 1-[2-(Azetidin-1-yl)ethyl]-6-(3-chlorophenyl)-3H-imidazo[4,5-b]pyridin-2-one] |
| 1.43 | O=c1[nH]c2ncc(-c3cccc(C(F)(F)F)c3)cc2n1CCN1CCCCC1 [Example 161, 1-[2-(1-Piperidyl)ethyl]-6-[3-(trifluoromethyl)phenyl]-3H-imidazo[4,5-b]pyridin-2-one] |
| 0.246 | O=c1[nH]c2ncc(-c3cccc(C(F)(F)F)c3)cc2n1CCN1CC(F)C1 [Example 163, 1-[2-(3-Fluoroazetidin-1-yl)ethyl]-6-[3-(trifluoromethyl)phenyl]-3H-imidazo[4,5-b]pyridin-2-one] |

More lines, now with the values behind:

| SMILES | IC50 [µM] |
| --- | --- |
| Cn1c(=O)n(CC(=O)N2CCC2)c2cc(-c3cc(C(F)F)cs3)cnc21 [Example 117, 1-[2-(Azetidin-1-yl)-2-oxo-ethyl]-6-[4-(difluoromethyl)-2-thienyl]-3-methyl-imidazo[4,5-b]pyridin-2-one] | 0.038 |
| Cn1c(=O)n(CC(=O)N2CC(F)C2)c2cc(-c3cc(C(F)F)cs3)cnc21 [Example 118, 6-[4-(Difluoromethyl)-2-thienyl]-1-[2-(3-fluoroazetidin-1-yl)-2-oxo-ethyl]-3-methyl-imidazo[4,5-b]pyridin-2-one] | 0.02 |
| Cc1csc(-c2cnc3[nH]c(=O)n(Cc4cc(C)on4)c3c2)c1 [Example 125, 1-[(5-Methylisoxazol-3-yl)methyl]-6-(4-methyl-2-thienyl)-3H-imidazo[4,5-b]pyridin-2-one] | 0.082 |
| Cc1cc(Cn2c(=O)[nH]c3ncc(-c4ccccc4C)cc32)no1 [Example 126, 1-[(5-Methylisoxazol-3-yl)methyl]-6-(o-tolyl)-3H-imidazo[4,5-b]pyridin-2-one] | 0.038 |
| Cn1ccc(Cn2c(=O)[nH]c3ncc(-c4ccc(F)cc4)cc32)n1 [Example 128, 6-(4-Fluorophenyl)-1-[(1-methylpyrazol-3-yl)methyl]-3H-imidazo[4,5-b]pyridin-2-one] | 5.16 |
| Cn1ccc(Cn2c(=O)[nH]c3ncc(-c4ccc(F)c(Cl)c4)cc32)n1 [Example 130, 6-(3-Chloro-4-fluoro-phenyl)-1-[(1-methylpyrazol-3-yl)methyl]-3H-imidazo[4,5-b]pyridin-2-one] | 4.73 |
| Cn1ccc(Cn2c(=O)[nH]c3ncc(-c4ccc(F)c(F)c4)cc32)n1 [Example 131, 6-(3,4-Difluorophenyl)-1-[(1-methylpyrazol-3-yl)methyl]-3H-imidazo[4,5-b]pyridin-2-one] | 3.56 |
| Cn1ccc(Cn2c(=O)[nH]c3ncc(-c4ccc(F)cc4F)cc32)n1 [Example 132, 6-(2,4-Difluorophenyl)-1-[(1-methylpyrazol-3-yl)methyl]-3H-imidazo[4,5-b]pyridin-2-one] | 6.76 |
| CCOC(=O)Cn1c(=O)[nH]c2ncc(-c3cccc(C(F)(F)F)c3)cc21 [Example 134, Ethyl 2-[2-oxo-6-[3-(trifluoromethyl)phenyl]-3H-imidazo[4,5-b]pyridin-1-yl]acetate] | 0.035 |
| O=C(O)Cn1c(=O)[nH]c2ncc(-c3cccc(C(F)(F)F)c3)cc21 [Example 135, 2-[2-Oxo-6-[3-(trifluoromethyl)phenyl]-3H-imidazo[4,5-1D]pyridin-1-yl]acetic Acid] | 6 |
| CCOC(=O)Cn1c(=O)n(C)c2ncc(-c3cccc(C(F)(F)F)c3)cc21 [Example 136, Ethyl 2-[3-methyl-2-oxo-6-[3-(trifluoromethyl)phenyl]imidazo[4,5-b]pyridin-1-yl]acetate] | 0.159 |
| Cn1c(=O)n(CC(=O)N2CC(F)(F)C2)c2cc(-c3cccc(C(F)(F)F)c3)cnc21 [Example 138, 1-[2-(3,3-difluoroazetidin-1-yl)-2-oxo-ethyl]-3-methyl-6-[3-(trifluoromethyl)phenyl]imidazo[4,5-b]pyridin-2-one] | 0.089 |
| Cc1c(F)ccc(-c2cnc3c(c2)n(Cc2cnccn2)c(=O)n3C)c1F [Example 139, 6-(2,4-Difluoro-3-methyl-phenyl)-3-methyl-1-(pyrazin-2-ylmethyl)imidazo[4,5-b]pyridin-2-one] | 0.084 |
| Cc1noc(Cn2c(=O)[nH]c3ncc(-c4ccc(F)cc4)cc32)n1 [Example 140, 6-(4-Fluorophenyl)-1-[(3-methyl-1,2,4-oxadiazol-5-yl)methyl]-3H-imidazo[4,5-b]pyridin-2-one] | 0.105 |
| Cn1cnc(Cn2c(=O)[nH]c3ncc(-c4ccc(F)cc4)cc32)n1 [Example 141, 6-(4-Fluorophenyl)-1-[(1-methyl-1,2,4-triazol-3-yl)methyl]-3H-imidazo[4,5-b]pyridin-2-one] | 1.18 |
| COCc1noc(Cn2c(=O)[nH]c3ncc(-c4ccc(F)c(F)c4)cc32)n1 [Example 145, 6-(3,4-Difluorophenyl)-1-[[3-(methoxymethyl)-1,2,4-oxadiazol-5-yl]methyl]-3H-imidazo[4,5-b]pyridin-2-one] | 1.31 |
| O=c1[nH]c2ncc(-c3cccc(C(F)(F)F)c3)cc2n1CCN1CCCC1 [Example 146, 1-(2-Pyrrolidin-1-ylethyl)-6-[3-(trifluoromethyl)phenyl]-3H-imidazo[4,5-b]pyridin-2-one] | 0.506 |
| O=c1[nH]c2ncc(-c3cccc(C(F)(F)F)c3)cc2n1CCNC1CC1 [Example 148, 1-[2-(Cyclopropylamino)ethyl]-6-[3-(trifluoromethyl)phenyl]-3H-imidazo[4,5-b]pyridin-2-one] | 0.505 |
| COC1CN(CCn2c(=O)[nH]c3ncc(-c4cccc(C(F)(F)F)c4)cc32)C1 [Example 149, 1-[2-(3-Methoxyazetidin-1-yl)ethyl]-6-[3-(trifluoromethyl)phenyl]-3H-imidazo[4,5-b]pyridin-2-one] | 0.756 |
| Cc1cc(F)ccc1-c1cnc2[nH]c(=O)n(CCN3CCC3)c2c1 [Example 151, 1-[2-(Azetidin-1-yl)ethyl]-6-(4-fluoro-2-methyl-phenyl)-3H-imidazo[4,5-b]pyridin-2-one] | 0.115 |
| Cc1ccccc1-c1cnc2[nH]c(=O)n(CCN3CCC3)c2c1 [Example 152, 1-[2-(Azetidin-1-yl)ethyl]-6-(o-tolyl)-3H-imidazo[4,5-b]pyridin-2-one] | 0.127 |
| O=c1[nH]c2ncc(-c3ccnc(C(F)(F)F)c3)cc2n1CCN1CCC1 [Example 155, 1-[2-(Azetidin-1-yl)ethyl]-6-[2-(trifluoromethyl)-4-pyridyl]-3H-imidazo[4,5-b]pyridin-2-one] | 1.75 |
| Cc1cc(-c2cnc3[nH]c(=O)n(CCN4CCC4)c3c2)ccc1F [Example 156, 1-[2-(Azetidin-1-yl)ethyl]-6-(4-fluoro-3-methyl-phenyl)-3H-imidazo[4,5-b]pyridin-2-one] | 0.039 |
| O=c1[nH]c2ncc(-c3cc(F)cc(F)c3)cc2n1CCN1CCC1 [Example 159, 1-[2-(Azetidin-1-yl)ethyl]-6-(3,5-difluorophenyl)-3H-imidazo[4,5-b]pyridin-2-one] | 0.211 |
| O=c1[nH]c2ncc(-c3cccc(OC(F)(F)F)c3)cc2n1CCN1CCC1 [Example 160, 1-[2-(Azetidin-1-yl)ethyl]-6-[3-(trifluoromethoxy)phenyl]-3H-imidazo[4,5-b]pyridin-2-one] | 0.311 |
| O=c1[nH]c2ncc(-c3cccc(C(F)(F)F)c3)cc2n1CCN1CCC(F)CC1 [Example 162, 1-[2-(4-Fluoro-1-piperidyl)ethyl]-6-[3-(trifluoromethyl)phenyl]-3H-imidazo[4,5-b]pyridin-2-one] | 1.1 |
